The subject of assay [1] is Tyrosine-protein kinase Blk (Homo sapiens), P51451 [UNDEFINED MUTATION]. Nature of the assay: Inhibition of recombinant full length human BLK M287V mutant assessed as residual activity at 1 uM using poly(Glu, Tyr) 4:1 as substrate incubated for 40 mins in presence of [gamma-33ATP] by scintillation counting based radiometry assay relative to control.
The target in assay [2] is CDK7/Cyclin H/MNAT1 (Homo sapiens) (UniProt P51946+P50613+P51948). Nature of the assay: Inhibition of recombinant full length human CDK7/cyclinH/MAT1 assessed as residual activity at 1 uM using peptide as substrate incubated for 40 mins in presence of [gamma-33ATP] by scintillation counting based radiometry assay relative to control. Type of assay: protein-complex assay.

The target of assay [3] is Serine/threonine-protein kinase DCLK3 (Homo sapiens) (UniProt Q9C098). Nature of the assay: Inhibition of recombinant human DCAMKL3 (345 to end residues) assessed as residual activity at 1 uM using KKLNRTLSFAEPG as substrate at 40 mins in presence of [gamma-33ATP] by scintillation counting based radiometry assay relative to control.
Assay [4] deals with Ephrin type-A receptor 8 (Homo sapiens) (UniProt P29322). Nature of the assay: Inhibition of recombinant human EphA8 (615 to 911 residues) assessed as residual activity at 1 uM using KTFCGTPEYLAPEVRREPRILSEEEQEMFRDFDYIADWC as substrate at 40 mins in presence of [gamma-33ATP] by scintillation counting based radiometry assay relative to control.
Ephrin type-A receptor 8 (Homo sapiens), sequence (P29322 whole entry, the tested form may be a part): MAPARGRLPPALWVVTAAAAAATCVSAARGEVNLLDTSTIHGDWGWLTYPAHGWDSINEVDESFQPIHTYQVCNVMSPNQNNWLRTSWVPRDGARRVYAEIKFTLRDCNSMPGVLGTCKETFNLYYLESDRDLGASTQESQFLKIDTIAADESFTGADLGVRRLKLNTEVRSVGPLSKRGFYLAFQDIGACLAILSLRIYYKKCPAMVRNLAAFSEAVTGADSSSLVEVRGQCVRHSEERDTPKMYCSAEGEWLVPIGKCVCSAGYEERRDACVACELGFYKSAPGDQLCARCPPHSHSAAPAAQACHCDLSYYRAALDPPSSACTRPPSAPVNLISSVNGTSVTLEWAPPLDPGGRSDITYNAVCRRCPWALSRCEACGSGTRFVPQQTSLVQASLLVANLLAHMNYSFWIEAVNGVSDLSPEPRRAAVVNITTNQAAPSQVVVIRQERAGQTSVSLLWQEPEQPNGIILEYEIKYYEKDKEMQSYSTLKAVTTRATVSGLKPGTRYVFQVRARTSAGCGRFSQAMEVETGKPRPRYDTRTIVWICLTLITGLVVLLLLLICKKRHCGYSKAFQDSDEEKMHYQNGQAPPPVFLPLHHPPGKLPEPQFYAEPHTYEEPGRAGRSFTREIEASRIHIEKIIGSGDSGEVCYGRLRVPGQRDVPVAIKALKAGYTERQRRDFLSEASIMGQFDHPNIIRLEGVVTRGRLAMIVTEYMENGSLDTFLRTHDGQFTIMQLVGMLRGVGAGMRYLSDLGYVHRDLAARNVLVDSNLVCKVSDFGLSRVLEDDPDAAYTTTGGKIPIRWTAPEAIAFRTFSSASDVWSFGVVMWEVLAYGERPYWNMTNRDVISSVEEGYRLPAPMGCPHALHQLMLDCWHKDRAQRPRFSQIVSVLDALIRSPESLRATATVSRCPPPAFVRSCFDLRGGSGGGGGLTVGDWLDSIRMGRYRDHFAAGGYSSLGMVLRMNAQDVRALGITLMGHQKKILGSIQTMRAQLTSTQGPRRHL
For assay [5], the species on record is Homo sapiens. Nature of the assay: Inhibition of recombinant human FLT4 V1128L/ H1146R double mutant (800 to end residues) assessed as residual activity at 1 uM using GGEEEEYFELVKKKK as substrate at 40 mins in presence of [gamma-33ATP] by scintillation counting based radiometry assay relative to control.
For assay [6], the target named is Beta-adrenergic receptor kinase 1 (Homo sapiens) (UniProt P25098). Nature of the assay: Inhibition of recombinant full length human GRK2 assessed as residual activity at 1 uM using casein as substrate at 40 mins in presence of [gamma-33ATP] by scintillation counting based radiometry assay relative to control.
Beta-adrenergic receptor kinase 1 (Homo sapiens), sequence (P25098 whole entry): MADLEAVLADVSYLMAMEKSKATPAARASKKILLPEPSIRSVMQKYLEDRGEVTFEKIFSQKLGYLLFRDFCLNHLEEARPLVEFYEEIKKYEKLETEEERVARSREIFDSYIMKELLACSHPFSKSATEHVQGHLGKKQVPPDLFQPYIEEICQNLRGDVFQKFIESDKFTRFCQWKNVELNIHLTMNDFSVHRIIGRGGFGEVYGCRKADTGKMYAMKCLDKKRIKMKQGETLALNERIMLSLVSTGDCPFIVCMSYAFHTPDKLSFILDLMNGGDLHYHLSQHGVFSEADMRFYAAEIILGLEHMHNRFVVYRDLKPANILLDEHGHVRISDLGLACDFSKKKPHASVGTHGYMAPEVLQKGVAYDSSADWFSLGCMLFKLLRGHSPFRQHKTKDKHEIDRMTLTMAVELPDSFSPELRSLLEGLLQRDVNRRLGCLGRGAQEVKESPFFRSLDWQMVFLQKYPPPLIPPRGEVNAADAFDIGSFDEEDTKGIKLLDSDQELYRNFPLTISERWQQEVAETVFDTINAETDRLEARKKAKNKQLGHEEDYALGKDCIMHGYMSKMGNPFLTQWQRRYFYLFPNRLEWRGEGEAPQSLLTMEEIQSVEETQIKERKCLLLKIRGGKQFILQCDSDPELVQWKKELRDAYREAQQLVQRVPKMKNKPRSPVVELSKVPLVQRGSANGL
In assay [7] the target is G protein-coupled receptor kinase 3 (Homo sapiens) (UniProt P35626). Nature of the assay: Inhibition of recombinant full length human GRK3 assessed as residual activity at 1 uM using casein as substrate at 40 mins in presence of [gamma-33ATP] by scintillation counting based radiometry assay relative to control.
The target in assay [8] is Tyrosine-protein kinase HCK (Homo sapiens) (UniProt P08631). Nature of the assay: Inhibition of human HCK (230 to 497 residues) assessed as residual activity at 1 uM using KVEKIGEGTYGVVYK as substrate after 40 mins by [gamma-33ATP] radiometric assay relative to control.
Assay [9] has as its target Tyrosine-protein kinase JAK2 (Homo sapiens) (UniProt O60674). Nature of the assay: Inhibition of human JAK2 (808 to end residues) assessed as residual activity at 1 uM using KTFCGTPEYLAPEVRREPRILSEEEQEMFRDFDYIADWC as substrate after 40 mins by [gamma-33ATP] radiometric assay relative to control.
In assay [10] the target is Tyrosine-protein kinase Lyn (Homo sapiens) (UniProt P07948). Nature of the assay: Inhibition of recombinant human Lyn assessed as residual activity at 1 uM using poly(Glu, Tyr) 4:1 as substrate after 40 mins in presence of [gamma-33ATP] by scintillation counting based radiometry assay relative to control.
Tyrosine-protein kinase Lyn (Homo sapiens), sequence (P07948 2-512 limits assumed): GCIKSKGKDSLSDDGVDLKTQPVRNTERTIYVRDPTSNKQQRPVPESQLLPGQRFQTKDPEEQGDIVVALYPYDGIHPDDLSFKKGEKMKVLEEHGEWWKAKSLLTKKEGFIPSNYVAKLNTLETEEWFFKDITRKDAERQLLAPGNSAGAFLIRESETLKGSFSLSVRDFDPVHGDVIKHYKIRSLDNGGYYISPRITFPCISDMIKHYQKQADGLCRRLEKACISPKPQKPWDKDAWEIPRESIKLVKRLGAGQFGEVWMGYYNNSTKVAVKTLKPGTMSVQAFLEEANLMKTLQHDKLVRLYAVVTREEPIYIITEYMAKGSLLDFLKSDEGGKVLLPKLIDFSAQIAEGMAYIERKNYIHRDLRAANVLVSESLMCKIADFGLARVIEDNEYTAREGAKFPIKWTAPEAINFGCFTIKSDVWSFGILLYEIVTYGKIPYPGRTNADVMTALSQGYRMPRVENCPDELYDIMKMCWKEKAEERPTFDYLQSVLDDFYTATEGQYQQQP
For assay [11], the species on record is Homo sapiens. Nature of the assay: Inhibition of human MAPK2 assessed as residual activity at 1 uM relative to control.
In assay [12] the target is Mitogen-activated protein kinase kinase kinase 3 (Homo sapiens) (UniProt Q99759). Nature of the assay: Inhibition of recombinant full length human MEKK3 assessed as residual activity at 1 uM using myelin basic protein as substrate incubated for 120 mins in presence of [gamma-33ATP by scintillation counting based radiometry assay relative to control.
For assay [13], the target named is Serine/threonine-protein kinase 24 (Homo sapiens) (UniProt Q9Y6E0). Nature of the assay: Inhibition of recombinant human MST3 (1 to 304 residues) assessed as residual activity at 1 uM using ERMRPRKRQGSVRRRV as substrate measured after 40 mins in presence of [gamma33P]ATP by scintillation counting method relative to control.
Serine/threonine-protein kinase 24 (Homo sapiens), sequence (Q9Y6E0 whole entry, looked up, the tested form may be a part): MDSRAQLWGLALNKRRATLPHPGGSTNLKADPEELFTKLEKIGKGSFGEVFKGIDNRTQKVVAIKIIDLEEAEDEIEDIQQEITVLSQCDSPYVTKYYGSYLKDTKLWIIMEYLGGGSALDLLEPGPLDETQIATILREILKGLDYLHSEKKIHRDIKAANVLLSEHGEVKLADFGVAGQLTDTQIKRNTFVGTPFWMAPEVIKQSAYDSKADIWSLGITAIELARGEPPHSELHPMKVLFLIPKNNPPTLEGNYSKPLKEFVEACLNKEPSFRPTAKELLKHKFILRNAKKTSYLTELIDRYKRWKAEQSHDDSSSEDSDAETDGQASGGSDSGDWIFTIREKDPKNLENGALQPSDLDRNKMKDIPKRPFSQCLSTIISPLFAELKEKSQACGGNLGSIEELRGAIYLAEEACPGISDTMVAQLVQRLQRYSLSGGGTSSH
Assay [14] deals with Serine/threonine-protein kinase PAK 5 (Homo sapiens) (UniProt Q9P286). Nature of the assay: Inhibition of recombinant human PAK5 (425 to end residues) assessed as residual activity at 1 uM using RRRLSFAEPG as substrate measured after 40 mins in presence of [gamma33P]ATP by scintillation counting method relative to control.
Serine/threonine-protein kinase PAK 5 (Homo sapiens), sequence (Q9P286 whole entry, looked up): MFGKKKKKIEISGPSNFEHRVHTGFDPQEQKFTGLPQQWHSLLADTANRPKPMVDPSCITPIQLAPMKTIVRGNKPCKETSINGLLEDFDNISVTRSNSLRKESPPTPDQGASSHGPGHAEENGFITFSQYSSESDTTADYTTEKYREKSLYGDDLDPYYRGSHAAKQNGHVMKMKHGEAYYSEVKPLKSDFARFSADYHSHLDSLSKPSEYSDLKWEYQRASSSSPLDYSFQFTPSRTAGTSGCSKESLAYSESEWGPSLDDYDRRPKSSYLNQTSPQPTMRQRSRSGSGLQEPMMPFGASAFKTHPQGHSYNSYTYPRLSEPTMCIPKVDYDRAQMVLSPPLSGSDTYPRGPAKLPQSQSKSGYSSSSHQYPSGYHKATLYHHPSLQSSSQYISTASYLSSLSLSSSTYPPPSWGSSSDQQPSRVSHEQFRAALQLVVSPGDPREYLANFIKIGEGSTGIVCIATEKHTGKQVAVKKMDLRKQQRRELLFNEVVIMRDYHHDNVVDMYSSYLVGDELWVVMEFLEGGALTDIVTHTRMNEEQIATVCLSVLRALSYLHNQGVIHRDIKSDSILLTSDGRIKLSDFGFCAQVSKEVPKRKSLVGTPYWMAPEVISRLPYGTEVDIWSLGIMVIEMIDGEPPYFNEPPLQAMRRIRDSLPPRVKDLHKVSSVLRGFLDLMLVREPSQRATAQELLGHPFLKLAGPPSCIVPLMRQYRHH
Assay [15] concerns Platelet-derived growth factor receptor alpha (Homo sapiens), P16234 [V561D]. Nature of the assay: Inhibition of human PDGFRalpha V561D mutant (550 to end residues) assessed as residual activity at 1 uM using GGMEDIYFEFMGGKKK as substrate measured after 40 mins in presence of [gamma33P]ATP by scintillation counting method relative to control.
Assay [16] has as its target [Pyruvate dehydrogenase (acetyl-transferring)] kinase isozyme 4, mitochondrial (Homo sapiens) (UniProt Q16654). Nature of the assay: Inhibition of recombinant human full length PDHK4 assessed as residual activity at 1 uM using KKKYHGHSMSDPGVSYRT as substrate measured after 40 mins in presence of [gamma33P]ATP by scintillation counting method relative to control.
For assay [17], the species on record is Homo sapiens. Nature of the assay: Inhibition of human activated Tec F514V mutant (174 to end residues) assessed as residual activity at 1 uM using EFPIYDFLPAKKK as substrate measured after 40 mins in presence of [gamma33P]ATP by scintillation counting method relative to control.
Assay [18] has as its target DNA-dependent protein kinase catalytic subunit (Homo sapiens) (UniProt P78527). Nature of the assay: Inhibition of recombinant full-length human DNA-PK at 1 uM assessed as residual activity at 1 uM using GST-cMyc-p53 as substrate measured after 40 mins by fluorescence assay.

Tyrosine-protein kinase JAK2 (Homo sapiens), sequence (O60674 whole entry): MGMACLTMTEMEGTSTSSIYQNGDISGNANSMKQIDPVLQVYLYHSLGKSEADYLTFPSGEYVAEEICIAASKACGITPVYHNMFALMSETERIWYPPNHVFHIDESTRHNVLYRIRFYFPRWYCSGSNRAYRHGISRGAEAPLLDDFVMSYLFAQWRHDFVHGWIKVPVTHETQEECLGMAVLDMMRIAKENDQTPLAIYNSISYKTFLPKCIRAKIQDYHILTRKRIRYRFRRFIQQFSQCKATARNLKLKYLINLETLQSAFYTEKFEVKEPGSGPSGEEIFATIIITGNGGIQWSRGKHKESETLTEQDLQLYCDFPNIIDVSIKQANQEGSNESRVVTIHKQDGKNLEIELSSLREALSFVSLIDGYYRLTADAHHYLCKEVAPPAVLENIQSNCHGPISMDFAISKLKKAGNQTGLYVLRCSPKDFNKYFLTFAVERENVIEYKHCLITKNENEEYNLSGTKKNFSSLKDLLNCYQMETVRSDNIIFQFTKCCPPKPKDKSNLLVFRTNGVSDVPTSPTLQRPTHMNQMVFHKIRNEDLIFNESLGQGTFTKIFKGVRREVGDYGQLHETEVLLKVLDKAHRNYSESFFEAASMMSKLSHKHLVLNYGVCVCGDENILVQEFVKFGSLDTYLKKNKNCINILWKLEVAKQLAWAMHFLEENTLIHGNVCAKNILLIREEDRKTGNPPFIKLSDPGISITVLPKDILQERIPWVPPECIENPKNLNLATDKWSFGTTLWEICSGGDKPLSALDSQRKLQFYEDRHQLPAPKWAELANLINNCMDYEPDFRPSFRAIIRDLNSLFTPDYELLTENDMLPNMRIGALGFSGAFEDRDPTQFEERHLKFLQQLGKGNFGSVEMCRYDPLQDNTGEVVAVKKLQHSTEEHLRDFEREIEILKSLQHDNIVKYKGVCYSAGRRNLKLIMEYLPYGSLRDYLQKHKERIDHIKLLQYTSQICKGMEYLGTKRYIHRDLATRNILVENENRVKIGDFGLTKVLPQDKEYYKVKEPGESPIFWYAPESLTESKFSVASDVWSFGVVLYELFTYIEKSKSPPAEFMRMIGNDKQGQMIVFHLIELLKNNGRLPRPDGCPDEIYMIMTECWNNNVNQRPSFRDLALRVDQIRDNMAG
[Pyruvate dehydrogenase (acetyl-transferring)] kinase isozyme 4, mitochondrial (Homo sapiens), sequence (Q16654 whole entry, looked up): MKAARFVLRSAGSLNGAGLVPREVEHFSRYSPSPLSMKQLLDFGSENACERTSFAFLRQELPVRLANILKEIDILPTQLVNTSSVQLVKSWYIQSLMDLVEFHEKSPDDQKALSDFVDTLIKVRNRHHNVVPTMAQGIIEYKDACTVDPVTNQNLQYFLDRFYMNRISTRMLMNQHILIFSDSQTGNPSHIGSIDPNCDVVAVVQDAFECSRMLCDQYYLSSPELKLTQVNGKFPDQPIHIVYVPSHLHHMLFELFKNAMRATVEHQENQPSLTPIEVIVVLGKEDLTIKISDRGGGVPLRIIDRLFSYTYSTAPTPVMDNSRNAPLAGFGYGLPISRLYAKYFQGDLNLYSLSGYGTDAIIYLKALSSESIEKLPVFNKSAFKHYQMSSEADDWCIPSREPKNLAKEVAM

Consider `N=C1NC(=O)/C(=C\c2ccc(-c3cccc([N+](=O)[O-])c3)o2)S1`, for which the Activity was 107% in assay [1]; 92% in assay [2]; 92% in assay [3]; 94% in [4]; 116% in assay [5]; 98% in assay [6]. Moreover, the Activity was found to be 94% in [7]; 72% in assay [8]; 102% in assay [9]; 83% in assay [10]; 103% in assay [11]; 98% in assay [12]. Further, the Activity in assay [13] is 105%; in [14], 103%; in [15], 91%; in assay [16], 103%; in [17] it was 96%; in assay [18], 93%.
In the case of `C=CCOC(=O)c1cc(-c2ccc(/C=C3/NC(=S)NC3=O)o2)ccc1Cl`, the Activity in [1] was found to be 93%; in [2] it was 94%; in assay [3] it was 103%; in assay [4], 99%; in assay [5], 82%; in [6] it was 101%. Moreover, the Activity in assay [7] came to 117%; in assay [8], 73%; in assay [9] it was 108%; in assay [10], 92%; in assay [11] it was 99%; in assay [12], 96%. For the same molecule, the Activity was 106% in assay [13]; 98% in assay [14]; 110% in assay [15]; 100% in assay [16]; 99% in [17]; 107% in assay [18].

The values are drawn from ChEMBL document CHEMBL4334438, “Discovery of novel glycogen synthase kinase-3α inhibitors: Structure-based virtual screening, preliminary SAR and biological evaluation for treatment of acute myeloid leukemia” (Eur J Med Chem, 2019).
